Tests used:
Type in all cases: cell-based
SW-620 = assay: NCI-60 SRB screen; conditions: Homo sapiens; SW-620, 10^–5 Molar; read-out: Percent growth inhibition
Method: (§1) All newly synthesized compounds were selected and screened for anticancer activity against 60 human cancer cell lines representing 9 types of tumors including leukemia, melanoma, lung, colon, CNS, ovarian, renal, prostate, and breast cancers at the National Cancer Institute (NCI), Bethesda, USA. Screening was performed utilizing a single dose (10^−5 M concentration) and cells were incubated for 48 h. The end point was determined using sulforhodamine B (SRB) dye.
(§2) In this study, all the 16 newly synthesized compounds were submitted to the National Cancer Institute (USA) for anticancer evaluation and were selected and evaluated using 60 different human tumor cell lines representing lung, colon, CNS, ovarian, renal, prostate, breast cancers as well as leukemia and melanoma. A single dose (10^–5 Molar) was used for the initial screening for evaluation of anticancer activity. The 60 human cancer cell lines were provided by the national cancer institute biomedical research campus in Frederick, Maryland.
(§3) 60 different human cancer cell lines were utilized to screen the newly synthesized compounds for anticancer activity according to the previously reported standard procedure[24]–[26] as follows: • 96 well microtiter plates were used to inoculate the cells at […] ranging from 4000–5000 cells/well depending on the replication time of individual cell lines. Roswell Park Memorial Institute culture medium (RPMI 1640 medium) containing 2 mM L-glutamine and fetal bovine serum was used to grow the cells at 37 °C, 5% CO2, 95% air and 100% relative humidity for 24 h. • Fixation of cells in two plates of each cell line in situ was done using trichloroacetic acid (TCA). This represented the measurement of cell population at the time of drug addition (Tz). • Dimethyl sulfoxide (DMSO) was used to dissolve the synthesized compounds at 400-fold the desired final maximum concentration and frozen prior to use. This frozen concentrate was melted and diluted to twice the final concentration with complete medium containing 50 µg/mL gentamycin at time of drug addition. • The final compound concentration was obtained by adding 100 µL of the synthesized compounds to the appropriate microtiter wells already containing 100 µL followed by incubation of the plates at 37 °C, 5% CO2, 95% air and 100% relative humidity for 48 h. • Fixation of the cells was achieved by gentle addition of 50 µL of cold 50% (w/v) TCA followed by incubation for 60 min at 4 °C. The supernatant was then discarded and the plates are washed 5 times with tap water and air dried. • Sulphorhodamine B (SRB) solution (100 µL) at 0.4% (w/v) in 1% acetic acid was added to each plate followed by incubation for 10 min at room temperature. The unbound dye was then removed by washing five times with 1% acetic acid and plates were air dried. • Dissolution of the bound stain was done using […] trizma base and the absorbance was read at […] wavelength using an automated plate reader. • The percentage growth inhibition was calculated as follows: Ti-Tz/C-Tz×100forconcentrationswhichTi≥Tz Ti-Tz/Tz×100forconcentrationswhichTi<Tz • Time zero (Tz) • Control growth (C) • Test growth in the presence of drug (Ti)

HCT-15 = assay: NCI-60 SRB screen; conditions: Homo sapiens; HCT-15, 10^–5 Molar; read-out: Percent growth inhibition
Method: as §1, §2, §3

IGROV1 = assay: NCI-60 SRB screen; conditions: Homo sapiens, IGROV-1; IGROV1, 10^–5 Molar; read-out: Percent growth inhibition
Method: as §1, §2, §3

786-0 = assay: NCI-60 SRB screen; conditions: Homo sapiens; 786-0, 10^–5 Molar; read-out: Percent growth inhibition
Method: as §1, §2, §3

SN12C = assay: NCI-60 SRB screen; conditions: Homo sapiens, 10^–5 Molar, read-out: Percent growth inhibition
Method: as §1, §2, §3

NCI-H226 = assay: NCI-60 SRB screen; conditions: Homo sapiens; NCI-H226, 10^–5 Molar; read-out: Percent growth inhibition
Method: as §1, §2, §3

K-562 = assay: NCI-60 SRB screen; conditions: Homo sapiens, K562; K-562, 10^–5 Molar; read-out: Percent growth inhibition
Method: as §1, §2, §3

MCF7 = assay: NCI-60 SRB screen; conditions: Homo sapiens; MCF7, 10^–5 Molar; read-out: Percent growth inhibition
Method: as §1, §2, §3

T-47D = assay: NCI-60 SRB screen; conditions: Homo sapiens, T47D, 10^–5 Molar, read-out: Percent growth inhibition
Method: as §1, §2, §3

PC-3 = assay: NCI-60 SRB screen; conditions: Homo sapiens; PC-3, 10^–5 Molar; read-out: Percent growth inhibition
Method: as §1, §2, §3

MDA-MB-435 = assay: NCI-60 SRB screen; conditions: Homo sapiens; MDA-MB-435, 10^–5 Molar; read-out: Percent growth inhibition
Method: as §1, §2, §3

KM12 = assay: NCI-60 SRB screen; conditions: Homo sapiens; KM12, 10^–5 Molar; read-out: Percent growth inhibition
Method: as §1, §2, §3

HOP-62 = assay: NCI-60 SRB screen; conditions: Homo sapiens; HOP-62, 10^–5 Molar; read-out: Percent growth inhibition
Method: as §1, §2, §3

SF-295 = assay: NCI-60 SRB screen; conditions: Homo sapiens; SF-295, 10^–5 Molar; read-out: Percent growth inhibition
Method: as §1, §2, §3

SF-268 = assay: NCI-60 SRB screen; conditions: Homo sapiens; SF-268, 10^–5 Molar; read-out: Percent growth inhibition
Method: as §1, §2, §3

UO-31 = assay: NCI-60 SRB screen; conditions: Homo sapiens; UO-31, 10^–5 Molar; read-out: Percent growth inhibition
Method: as §1, §2, §3

SNB-75 = assay: NCI-60 SRB screen; conditions: Homo sapiens; SNB-75, 10^–5 Molar; read-out: Percent growth inhibition
Method: as §1, §2, §3

[1] = tested on: 60 human cancer cell lines; assay: NCI-60 SRB screen, whole panel; conditions: Homo sapiens; for activity at 10 µM: 48 h, One Dose Mean Graph, Conc 1.00E-5 Molar, read-out: Mean Growth Percent
NCI-H23 = assay: NCI-60 SRB screen; conditions: Homo sapiens; NCI-H23, 10^–5 Molar; read-out: Percent growth inhibition
Method: as §1, §2, §3

MALME-3M = assay: NCI-60 SRB screen; conditions: Homo sapiens, 10^–5 Molar, read-out: Percent growth inhibition
Method: as §1, §2, §3

OVCAR-8 = assay: NCI-60 SRB screen; conditions: Homo sapiens; OVCAR-8, 10^–5 Molar; read-out: Percent growth inhibition
Method: as §1, §2, §3

CCRF-CEM = assay: NCI-60 SRB screen; conditions: Homo sapiens, 10^–5 Molar, read-out: Percent growth inhibition
Method: as §1, §2, §3

OVCAR-3 = assay: NCI-60 SRB screen; conditions: Homo sapiens; OVCAR-3, 10^–5 Molar; read-out: Percent growth inhibition

Row | SMILES | inhibition at 10 µM (IGROV1) | inhibition at 10 µM (786-0) | inhibition at 10 µM (SN12C) | inhibition at 10 µM (NCI-H226) | inhibition at 10 µM (K-562) | inhibition at 10 µM (MCF7) | inhibition at 10 µM (T-47D) | inhibition at 10 µM (PC-3) | inhibition at 10 µM (MDA-MB-435) | inhibition at 10 µM (KM12) | inhibition at 10 µM (HOP-62) | inhibition at 10 µM (SF-295) | inhibition at 10 µM (SF-268) | inhibition at 10 µM (UO-31) | inhibition at 10 µM (SNB-75) | activity at 10 µM [1] | inhibition at 10 µM (NCI-H23) | inhibition at 10 µM (MALME-3M) | inhibition at 10 µM (OVCAR-8) | inhibition at 10 µM (CCRF-CEM) | other results
1 | CCn1cc(C(=O)O)c(=O)c2cc(F)c(N3CCN(C(=O)c4ccc(Br)cc4)C(C)C3)c(F)c21 (stereo not shown) [Compound 7b, 7-(4-(4-Bromobenzoyl)-3-methylpiperazin-1-yl)-1-ethyl-6,8-difluoro-4-oxo-1,4-dihydroquinoline-3-carboxylic acid] | 5.97% | 0.58% | 1.45% | 1.95% | 0.24% | 8.87% | 6.95% | 5.63% | 3.15% | 3.51% | 5.56% | 6.71% | 6.79% | 21.4% | 2.37% | 98.8% |  |  |  |  | inhibition at 10 µM (SW-620): 0%; inhibition at 10 µM (HCT-15): 1.3%
2 | CCn1cc(C(=O)O)c(=O)c2cc(F)c(N3CCN(CC(=O)Nc4ccc(Cl)cc4)C(C)C3)c(F)c21 (stereo not shown) [Compound 5b, 7-(4-(2-((4-Chlorophenyl)amino)-2-oxoethyl)-3-methylpiperazin-1-yl)-1-ethyl-6,8-difluoro-4-oxo-1,4-dihydroquinoline-3-carboxylic acid] | 0.82% |  | 2.23% | 3.83% | 14.2% | 10.6% | 11.2% | 12.1% | 5.85% | 3.94% |  | 13% | 6.49% | 31.4% | 17.7% | 94.6% | 7.93% | 4.32% | 7.15% | 2.48% | inhibition at 10 µM (SW-620): 1.08%; inhibition at 10 µM (HCT-15): 1.39%
3 | CCn1cc(C(=O)O)c(=O)c2cc(F)c(N3CCN(CC(=O)Nc4ccccc4)C(C)C3)c(F)c21 (stereo not shown) [Compound 5a, 1-Ethyl-6,8-difluoro-7-(3-methyl-4-(2-oxo-2-(phenylamino)ethyl)piperazin-1-yl)-4-oxo-1,4-dihydroquinoline-3-carboxylic acid] |  | 7.47% |  |  | 12.9% | 7.33% | 4.6% | 6.83% | 2.9% | 0.07% |  | 4.71% | 6.33% | 23.5% | 13.9% | 97.2% | 8.68% | 2.09% | 1.7% | 3.25% | 
4 | CCn1cc(C(=O)O)c(=O)c2cc(F)c(N3CCN(C(=O)c4ccc([N+](=O)[O-])cc4)C(C)C3)c(F)c21 (stereo not shown) [Compound 7d, 1-Ethyl-6,8-difluoro-7-(3-methyl-4-(4-nitrobenzoyl)piperazin-1-yl)-4-oxo-1,4-dihydroquinoline-3-carboxylic acid] |  | 0.6% | 0.88% | 3.95% | 2.06% | 5.47% | 4.73% | 12% |  | 1.24% | 7.44% | 2.82% | 7.01% | 27.2% | 13.9% | 97.3% |  | 0.88% |  |  | inhibition at 10 µM ([1]; prostate and renal cancer cell lines, 10^−5 M, read-out: percent inhibition): 12 to 27.2%
5 | CCn1cc(C(=O)O)c(=O)c2cc(F)c(N3CCN(C(=O)c4ccccc4)C(C)C3)c(F)c21 (stereo not shown) [Compound 7a, 7-(4-Benzoyl-3-methylpiperazin-1-yl)-1-ethyl-6,8-difluoro-4-oxo-1,4-dihydroquinoline-3-carboxylic acid] | 3.14% | 14.7% |  | 2.44% | 7.84% | 6.26% | 18.1% | 13% | 4.07% | 1.89% | 4.44% | 6.9% | 9.47% | 28.5% | 21.7% | 93.5% | 4.39% | 4.96% | 4.61% | 2.26% | inhibition at 10 µM (OVCAR-3): 3.69%
6 | CCn1cc(C(=O)O)c(=O)c2cc(F)c(N3CCN(C(=O)c4ccc(Cl)cc4)C(C)C3)c(F)c21 (stereo not shown) [Compound 7c, 7-(4-(4-Chlorobenzoyl)-3-methylpiperazin-1-yl)-1-ethyl-6,8-difluoro-4-oxo-1,4-dihydroquinoline-3-carboxylic acid] | 1.62% |  | 3.15% | 7.33% | 1.62% | 9.09% | 5.3% | 9.65% | 6.54% | 0.72% | 2.13% | 3.13% | 7.02% | 23.9% | 9.12% | 97.7% |  | 1.6% |  |  | 

Source: article PMC10940605, “Design, synthesis and in vitro anticancer activity of some new lomefloxacin derivatives” (Scientific Reports, 2024)
